According to patent publication US20250064992A1, “IMAGING METHOD FOR DESIGNER RECEPTOR, ANTAGONIST OR AGONIST, PHARMACEUTICAL, AND COMPANION DIAGNOSTIC AGENT” (priority 2018, published 2025):

Assays:
hM3D receptor [1] = target: T1, hM3D receptor (Homo sapiens, UniProt P20309, A239G/Y149C); assay: 18F-FDG PET glucose metabolism image after C22b 0.1 mg/kg, hM3D expressed in left amygdala; format: in vivo; conditions: Macaca mulatta
T1 construct: expressed in transfected cells; host or cells: neurons of the left amygdala of live Macaca mulatta, transduced with AAV2-CMV-hM3D
T1 sequence (P20309 whole entry Y149C/A239G, the tested form may be a part): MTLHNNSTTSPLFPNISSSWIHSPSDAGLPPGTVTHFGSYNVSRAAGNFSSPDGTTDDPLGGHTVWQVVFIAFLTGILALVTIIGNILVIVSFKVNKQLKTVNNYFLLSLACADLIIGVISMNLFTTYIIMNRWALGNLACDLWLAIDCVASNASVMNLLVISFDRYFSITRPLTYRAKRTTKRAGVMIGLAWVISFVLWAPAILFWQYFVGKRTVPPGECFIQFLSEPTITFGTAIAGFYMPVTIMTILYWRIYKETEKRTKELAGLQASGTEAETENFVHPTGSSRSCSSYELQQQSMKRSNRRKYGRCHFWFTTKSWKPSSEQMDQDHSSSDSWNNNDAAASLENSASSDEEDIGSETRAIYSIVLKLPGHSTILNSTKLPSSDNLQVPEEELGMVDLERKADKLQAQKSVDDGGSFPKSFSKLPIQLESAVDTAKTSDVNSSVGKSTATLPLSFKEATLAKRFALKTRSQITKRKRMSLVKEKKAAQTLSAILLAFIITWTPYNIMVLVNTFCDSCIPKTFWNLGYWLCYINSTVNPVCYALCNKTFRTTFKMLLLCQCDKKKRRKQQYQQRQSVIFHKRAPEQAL
Experimental: On the day 65 days after the AAV vector was injected, a C22b compound (0.1 mg/kg) was intravenously administered to the same Macaca mulatta as in Example 3 under isoflurane anesthesia, 1 minute later, ^18F-FDG (263 MBq) was intravenously administered, and then subjected to PET scanning for 90 minutes. Note that, here, the C22b compound was HY-42110 (manufactured by MedChem Express) which was the compound represented by Formula (III) in which R^1 was methyl, X was imino, and R^2 was hydrogen.
A glucose metabolism image (whole Brain Activity) when an average in the whole brain was determined as 100% was created from PET data integrated for 90 minutes.

hM3D receptor [2] = target: T1, hM3D receptor; assay: 18F-FDG PET glucose metabolism, C22b 1 μg/kg versus solvent, one-way repeated measures ANOVA, hM3D in left amygdala; format: in vivo, monkey; conditions: Macaca mulatta
Experimental: Then, the AAV vector was injected into Macaca mulatta different from in Example 3 (male, 3 kg) in the same manner as in Example 3. On the day 70 days after, a C22b compound solution (1 μg/kg) or a solvent was intravenously administered under isoflurane anesthesia, 1 minute later, ^18F-FDG (224 to 286 MBq) was intravenously administered, and then subjected to PET scanning for 120 minutes. The process was performed four times for each intravenous dose. Note that the solvent was the same as a solvent used for the C22b compound solution (solvent: 0.1 mL/kg of saline containing 1% dimethyl sulfoxide and 5% Tween 20 (surfactant)).
A glucose metabolism image (whole brain activity) when an average of the whole brain was determined as 100% was created from PET data integrated from 30 minutes to 60 minutes after the administration. Then, a site in which the C22b administration caused a statistically significant change compared to a solvent administration was analyzed by one-way repeated measures ANOVA using MATLAB (R2016a) and SPM12.

hM4D receptor [3] = assay: PET imaging with radiolabeled tracer, ligand binding potential image (cerebellum as reference region), hM4D expressed in right putamen; format: in vivo; conditions: Japanese macaque, PET 90 minutes, cerebellum BP determined as 1, non-injection region
Experimental: (§1) The head of Japanese macaque (male/5.5 kg) was fixed to a stereotaxic instrument under general anesthesia, and 6 μL of an adeno-associated virus (AAV) vector (AAV2-CMV-hM4D) for expressing an hM4D receptor in a nerve cell-specific manner was injected for 12 minutes by a Hamilton syringe (10 μL) into a middle portion of the right putamen read from a magnetic resonance imaging (MRI) image taken in advance. Note that, here, the CMV was a promotor for gene expression.
(§2) On the day 427 days after the injection, a compound represented by Formula (II) (hereinafter may be referred to as [^11C]C22b) (364 MBq) serving as a radiolabeled tracer was intravenously administered under isoflurane anesthesia and subjected to PET scanning for 90 minutes.
(§3) An image of a ligand binding potential was created from PET data integrated for 90 minutes using the cerebellum as a reference region (the binding potential (BP) in the cerebellum was determined as 1).

hM4D receptor [4] = target: T2, hM4D receptor (Homo sapiens, UniProt P08173, A203G/Y113C); conditions: Japanese macaque; for Selectivity (expressed region/unexpressed region): hM4D, ratio of tracer amount per volume; for hM4D-expressed region amount of uptake of tracer: right putamen, PET 30 to 90 minutes after administration
Experimental: (§4) The [^11C]C22b (Example 2) and [^11C]clozapine ([^11C]CLZ, Comparative Example 1) were compared for a property of visualizing hM4D expressed in the Japanese macaque used in Example 1. The hM4D receptor was expressed in the same manner as in Example 1.
(§5) An average image integrated from 30 to 90 minutes after administration of a tracer was created based on a standardized uptake value (SUV) and an amount of uptake in the brain was calculated from PET imaging taken from 30 to 90 minutes after the administration in the frontal plane including the right putamen in which the hM4D was expressed.

hM4D receptor [5] = conditions: Japanese macaque, PET 30 to 90 minutes after administration; for Whole brain amount of uptake of tracer: SUV; for Control region (hM4D-unexpressed region) amount of uptake of tracer: left putamen
Experimental: as §4, §5

hM3D receptor [6] = target: T1, hM3D receptor; assay: PET imaging with radiolabeled tracer, ligand binding potential image (cerebellum as reference region), hM3D expressed in left amygdala; format: in vivo; conditions: Macaca mulatta
Experimental: (§6) The head of Macaca mulatta (male/4.2 kg) was fixed to a stereotaxic instrument under general anesthesia, 3 μL of an adeno-associated virus (AAV) vector (AAV2-CMV-hM3D) for expressing an hM3D receptor in a nerve cell-specific manner was injected for 12 minutes by a Hamilton syringe (10 μL) into a middle portion of the left amygdala read from a magnetic resonance imaging (MRI) image taken in advance. Note that, here, the CMV was a promotor for gene expression.
(§7) On the day 57 days after the injection, the [^11C]C22b (277 MBq) serving as a radiolabeled tracer was intravenously administered under isoflurane anesthesia and subjected to PET scanning for 90 minutes.
(§8) An image of a ligand binding potential was created from PET data integrated for 90 minutes using the cerebellum as a reference region (the binding potential (BP) of the cerebellum was determined as 1). A portion shown by an arrow in FIG. 6 represents the left amygdala into which the AAV vector has been injected.

hM3D receptor [7] = assay: as above; format: in vivo; conditions: Macaca mulatta, PET 90 minutes, cerebellum BP determined as 1, non-injection region
Experimental: as §6, §7, §8

hM3D receptor [8] = target: T1, hM3D receptor; format: in vivo; conditions: Macaca mulatta
Experimental: as §6, §7

hM3D receptor [9] = format: in vivo; conditions: Macaca mulatta
Experimental: as §6, §7

hM4D [10] = target: T3, hM4D (Homo sapiens, UniProt P08173, A203G/Y113C); assay: PET imaging of axon terminal (substantia nigra pars reticulata), projection target of hM4D-expressing nerve cell in right putamen; format: in vivo; conditions: Japanese macaque, PET average image 30 to 90 minutes after tracer
T3 construct: expressed in transfected cells; host or cells: neurons of the right putamen of a live Japanese macaque, transduced with AAV2-CMV-hM4D
T3 sequence (P08173 1-479 Y113C/A203G): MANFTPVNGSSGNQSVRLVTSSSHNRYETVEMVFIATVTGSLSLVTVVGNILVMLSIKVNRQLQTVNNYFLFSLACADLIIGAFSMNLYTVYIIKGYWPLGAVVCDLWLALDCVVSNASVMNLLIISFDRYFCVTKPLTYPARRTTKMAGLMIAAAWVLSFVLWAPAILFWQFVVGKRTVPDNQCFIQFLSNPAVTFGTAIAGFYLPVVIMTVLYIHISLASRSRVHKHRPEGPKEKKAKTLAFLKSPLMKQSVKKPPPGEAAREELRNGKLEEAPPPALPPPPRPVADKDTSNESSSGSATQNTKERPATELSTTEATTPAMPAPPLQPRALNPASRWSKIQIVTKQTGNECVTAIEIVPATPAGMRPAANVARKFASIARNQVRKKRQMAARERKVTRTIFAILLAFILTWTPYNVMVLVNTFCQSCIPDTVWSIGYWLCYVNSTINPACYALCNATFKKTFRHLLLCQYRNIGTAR
Experimental: (§9) Specifically, the [^11C]C22b was exogenously administered as a tracer in the same manner as in Example 1 and subjected to PET scanning for 90 minutes.
(§10) Specifically, the compound represented by […] ([^11C]C22b) was exogenously administered as a tracer and subjected to PET scanning for 90 minutes.

hM4D receptor [11] = target: T2, hM4D receptor; assay: PET imaging with radiolabeled tracer, ligand binding potential image (cerebellum as reference region), hM4D expressed in right putamen; format: in vivo; set-up: expressed in transfected cells; host or cells: neurons of the right putamen of a live Japanese macaque, transduced with AAV2-CMV-hM4D; conditions: Japanese macaque
Experimental: as §1, §2, §3

hM4D [12] = assay: PET imaging of axon terminal (substantia nigra pars reticulata), projection target of hM4D-expressing nerve cell in right putamen; format: in vivo; conditions: Japanese macaque, PET average image 30 to 90 minutes after tracer
Experimental: as §9, §10

Compound	glucose metabolism in left amygdala (AAV injected) relative to control region (right amygdala) (hM3D receptor [1]; C22b 0.1 mg/kg i.v., 18F-FDG PET 90 minutes) [times]	action at hM3D receptor (hM3D receptor [1]; glucose metabolism activated in hM3D-expressing left amygdala)	t-value for the AAV vector injected region (one-way repeated measures ANOVA) (hM3D receptor [2]; C22b 1 μg/kg i.v. vs solvent, left amygdala)	glucose metabolism activity in left amygdala, C22b versus solvent administration (hM3D receptor [2]; C22b 1 μg/kg i.v., 18F-FDG PET 30 to 60 minutes, uncorrected p<0.001)	binding potential in control region (left putamen) (hM4D receptor [3])	Selectivity (expressed region/unexpressed region) (hM4D receptor [4])	hM4D-expressed region amount of uptake of tracer (hM4D receptor [4]) [g/cc]	Whole brain amount of uptake of tracer (hM4D receptor [5]) [g/cc]	Control region (hM4D-unexpressed region) amount of uptake of tracer (hM4D receptor [5]) [g/cc]	binding potential in the left amygdala into which the AAV vector had been injected (hM3D receptor [6]; i.v. tracer 277 MBq, PET 90 minutes, cerebellum BP determined as 1, hM3D-expressed region)	binding potential of injected region relative to non-injection region (hM3D receptor [6]; left amygdala (hM3D) vs right amygdala) [times]	binding potential in control region (right amygdala) (hM3D receptor [7])	Selectivity (expressed region/unexpressed region) (hM3D receptor [8]; hM3D, ratio of tracer amount per volume)	hM3D-expressed region amount of uptake of tracer (hM3D receptor [8]; left amygdala) [g/cc]	Whole brain amount of uptake of tracer (hM3D receptor [9]) [g/cc]	Control region (hM3D-unexpressed region) amount of uptake of tracer (hM3D receptor [9]; opposite region) [g/cc]	visualisation of hM4D in the axon terminal (substantia nigra pars reticulata) (hM4D [10])	binding potential in the right putamen into which the AAV vector had been injected (hM4D receptor [11]; i.v. tracer 364 MBq, PET 90 minutes, cerebellum BP determined as 1, hM4D-expressed region)	binding potential of injected region relative to non-injection region (hM4D receptor [11]; right putamen (hM4D) vs left putamen) [times]	binding to other nerve cells or brain tissues (off-target) (hM4D [12])
CN1CCN(C2=Nc3ccccc3Nc3ccccc32)CC1 [C22b]	1.88	acted as an agonist	> 5.2	significantly high																
[11CH3]N1CCC(C2=Nc3ccccc3Nc3ccccc32)CC1 [[^11C]C22b]					0.28	2.31	6.32	2.47	2.74	1.05	3.4	0.31	1.45	3.77	2.42	2.60	hM4D was confirmed to be expressed in the axon terminal	3.07	11	
CN1CCN(C2=Nc3cc(Cl)ccc3Nc3ccccc32)CC1 [[^11C]clozapine, [^11C]8-chloro-11-(4-methylpiperazine-1-yl)-5H-dibenzo[b,e] [1,4]diazepine, reference compound]						1.25	5.73	3.24	4.57								hM4D was confirmed to be expressed in the axon terminal			also allowed to bind to nerve cells other than the nerve cell of interest or brain tissues to some extent
